According to patent US20080299170A1, “Medical Devices and Coatings Therefor” (Aston University, priority 2005, published 2008):
Read-outs that look alike come from different tables or passages of the source.

Columns and labels:
[1] = biological target: T1, bovine epidermal transglutaminase (Bos taurus, UniProt A6QP57); settings: Castelhano et al., Bioorg. Chem. (1988) 16, 335-340; cited from earlier work
T1 sequence (A6QP57 1-691): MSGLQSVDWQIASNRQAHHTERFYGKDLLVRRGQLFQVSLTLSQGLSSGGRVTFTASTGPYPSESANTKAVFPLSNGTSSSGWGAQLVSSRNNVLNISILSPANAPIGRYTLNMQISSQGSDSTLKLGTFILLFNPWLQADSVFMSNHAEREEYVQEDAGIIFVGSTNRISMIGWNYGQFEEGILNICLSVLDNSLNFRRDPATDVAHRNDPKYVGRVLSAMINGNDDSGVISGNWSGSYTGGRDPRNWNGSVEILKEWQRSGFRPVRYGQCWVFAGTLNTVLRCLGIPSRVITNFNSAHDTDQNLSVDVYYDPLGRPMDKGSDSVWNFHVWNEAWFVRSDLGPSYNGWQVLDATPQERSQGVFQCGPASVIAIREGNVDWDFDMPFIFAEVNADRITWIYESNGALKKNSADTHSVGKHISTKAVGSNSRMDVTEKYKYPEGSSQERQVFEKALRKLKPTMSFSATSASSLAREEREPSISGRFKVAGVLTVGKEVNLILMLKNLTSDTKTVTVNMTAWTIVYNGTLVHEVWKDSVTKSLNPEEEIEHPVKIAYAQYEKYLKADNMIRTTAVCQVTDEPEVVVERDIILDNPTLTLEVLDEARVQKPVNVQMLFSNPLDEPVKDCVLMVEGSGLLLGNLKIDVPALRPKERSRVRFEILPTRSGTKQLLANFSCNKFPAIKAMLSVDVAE

factor XIIIa [2] = biological target: T2, factor XIIIa (Homo sapiens, UniProt P00488); experiment: factor XIIIa inhibition (IC50); assay type: biochemical; settings: ref [14], unpublished observations
T2 sequence (P00488 39-732 limits assumed): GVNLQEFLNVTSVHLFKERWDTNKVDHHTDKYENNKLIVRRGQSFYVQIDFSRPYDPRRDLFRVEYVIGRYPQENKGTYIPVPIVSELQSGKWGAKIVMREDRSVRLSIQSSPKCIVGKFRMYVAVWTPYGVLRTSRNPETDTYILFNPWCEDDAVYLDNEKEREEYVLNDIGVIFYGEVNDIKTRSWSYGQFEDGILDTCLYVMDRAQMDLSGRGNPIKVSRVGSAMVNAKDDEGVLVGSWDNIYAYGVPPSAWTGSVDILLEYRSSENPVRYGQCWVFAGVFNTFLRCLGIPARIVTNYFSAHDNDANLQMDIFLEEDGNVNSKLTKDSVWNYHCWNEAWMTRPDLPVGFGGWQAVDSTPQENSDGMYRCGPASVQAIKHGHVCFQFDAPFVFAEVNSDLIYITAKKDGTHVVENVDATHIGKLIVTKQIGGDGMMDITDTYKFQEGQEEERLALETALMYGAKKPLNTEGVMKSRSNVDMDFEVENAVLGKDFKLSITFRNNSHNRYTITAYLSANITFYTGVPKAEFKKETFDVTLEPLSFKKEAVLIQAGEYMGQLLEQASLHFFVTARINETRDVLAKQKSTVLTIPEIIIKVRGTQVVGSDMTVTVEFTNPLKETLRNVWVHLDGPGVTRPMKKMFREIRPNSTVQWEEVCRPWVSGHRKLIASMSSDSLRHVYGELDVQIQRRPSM

human blood clots = experiment: in vitro assay of fibrinolysis (human blood clot lysis); settings: 250 μM compound, human whole blood clot, TPA; for fibrinogen (FITC-fibrinogen) release from clots: FIG. 2; for red blood cell release from the blood clots: absorbance 750 nm, FIG. 1
Procedure: A number of TGase inhibitors show promise for exploitation in therapeutic areas where TGase has been implicated. […] Compounds 1 and 3 were evaluated for stimulation of thrombolysis (human blood clot lysis) and associated release of embedded staphylococci using an in vitro assay of fibrinolysis as shown below.
Fresh human venous blood (1 ml) was collected by venepuncture in 13 mM citrate. After addition of Staphylococcus aureus NCTC 8325 (to 10^6 cfu/ml), tissue plasminogen activator (TPA, to 100 ng/ml) and FITC-labelled fibrinogen (to 10 μg/ml) aqueous solutions of compounds 1 or 3 (to 250 μM) or water (control), the blood was clotted by addition of CaCl2 (to 20 mM) and allowed to cross-link for 1 hr at 37° C. Blood clots were washed three times each in 1 ml sterile phosphate buffered saline (PBS), resuspended in 1 ml PBS containing 10 μg/ml TPA and incubated with shaking at 37° C. Samples of the clot suspending fluid were withdrawn at intervals and measured for red blood cell content (absorbance 750 nm), fibrinolysis (fluorescence) and release of Staphylococcus aureus (by viable counting).

fibrin clot = experiment: stabilized fibrin clot formation; assay type: biochemical
factor XIIIa [3] = biological target: T2, factor XIIIa; settings: Proof of Principle Studies, ref [10]; cited from earlier work
[4] = release of inhibitor from coated polyurethane catheter; assay type: physicochemical; settings: polylactide-glycolide coating, phosphate buffered saline 37° C., over a 336 hour period, FIG. 4
Procedure: Catheter sections (2 cm, polyurethane Venflon, BD […]) were immersed in a solution of compound 3 (10 mg/ml), dissolved in polylactide-glycolide in dichloromethane (256 mg/ml) and allowed to dry in air. Individual sections were placed in 2 ml of phosphate buffered saline at 37° C. with constant shaking. Release of compound 3 was measured by assaying the phosphate buffered saline over a 336 hour period.

thrombus = settings: ref [11]; cited from earlier work
[5] = test system: femoral artery thrombosis; settings: ref [11]; cited from earlier work

| Structure (SMILES) | inhibition of bovine epidermal transglutaminase [1] | IC50 (factor XIIIa [2]) [µM] | fibrinogen (FITC-fibrinogen) release from clots (human blood clots) | red blood cell release from the blood clots (human blood clots) | inhibition of stabilized fibrin clot formation (fibrin clot) | IC50 (factor XIIIa [3]) [µM] | release of inhibitor from a coated catheter [4] | thrombolysis in vitro (thrombus) | thrombolysis in a rabbit model of femoral artery thrombosis [5] |
| --- | --- | --- | --- | --- | --- | --- | --- | --- | --- |
| O=C(N[C@@H](Cc1ccccc1)C(=O)NCC1CC(Br)=NO1)OCc1ccccc1 (stereo partly drawn) [(S)-1-[(3-Bromo-4,5-dihydro-isoxazol-5-ylmethyl)-carbamoyl]-2-phenyl-ethyl}-carbamic acid benzyl ester] | inhibitor | – | – | – | – | – | – | – | – |
| C[S+](C)CC(=O)CC[C@H](NC(=O)[C@H](Cc1ccccc1)NC(=O)OCc1ccccc1)C(=O)O [Compound 1, N-benzyloxycarbonyl-L-phenylalanyl-6-dimethylsulfonium-5-oxo-L-norleucine] | – | 50 | greatly increased | increased | inhibit stabilized fibrin clot formation | 30 | – | – | – |
| C[S+](C)CC(=O)CC[C@H](NC(=O)[C@@H]1CCCN1C(=O)OCc1ccccc1)C(=O)O [Compound 2, N-Benzyloxycarbonyl-L-prolinyl-6-dimethylsulfonium-5-oxo-L-norleucine] | – | 10 | – | – | – | – | – | – | – |
| CC(=O)CSc1n(C)cc[n+]1C [Compound 3] | – | – | greatly increased | increased | – | 50 | prolonged release | enhanced thrombolysis | enhanced thrombolysis |
